Assays:
Format in all cases: cell-based
[1] = target: T1, SMARCA2 (Homo sapiens, UniProt P51531); assay: MSD SMARCA2 degradation in A549 cell line; conditions: 24 h; for DC50: A549 cells, read-out: SMARCA2 MSD A549 degradation 24 h: Average external-Abs DC50; for Dmax: A549, A549 cells
Outline: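 A549 cells treated 24 h with compound at final 0.152-1000 nM (3-fold series, DMSO control). Lysates analyzed by MSD immunoassay using anti-SMARCA2/BRM detection and SULFO-TAG secondary antibodies; maximal degradation (Dmax %) reported as letter bins.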

[2] = target: T2, SMARCA4 (Homo sapiens, UniProt P51532); assay: SMARCA4 Western blot MV4-11 degradation; conditions: 24 h; for DC50: MV4-11 cells, read-out: SMARCA4 WB MV411 degradation 24 h: Average external-Abs DC50; for Dmax: MV4-11, MV4-11 cells, read-out: SMARCA4 WB MV411 degradation 24 h: Average Dmax %
T2 construct: SMARCA2 and SMARCA4 protein degradation in MV4-11 cells; endogenous in cells; host or cells: MV4-11
Procedure: Cells were seeded into 6-well plates (MV4-11: 4×10^6 cells/well/1 ml) and 1 ml of 2× compound solution was added into the well to make the final concentration and the plates were mixed well and incubated for 24 hours (No cytotoxicity was observed). The cell were collected with media and spun at 3000 rpm for 5 minutes. The supernatant was aspirated and the well and the cells were washed with cold PBS once and combined for centrifugation again; the supernatant aspirated again. 200 ul pre-chilled RIPAlysis buffer (Boston BioProducts BP-115D) with protease/phosphatase inhibitor (Roche 05892791001/Roche 04906837001) was directly added into the tube to lyze the cells for 20 minutes on ice. The cell lysate were collected into EP tubes and spun at 13000 rpm for 20 minutes and 72 ul supernatant was transferred to a fresh EP tube containing 18 ul of 5× loading buffer (Beyotime Bio P0015) to make the loading samples. The samples were heated to 100° C. for 10 minutes and cooled to RT and microcentrifuged. 20 ul of samples were loaded onto SDS-PAGE gel (Novex, WG1402BOX) and the gel was run at 80 V for 20 minutes and 120 V for 1.5 hours. The samples were electrotransfer to a NC membrane using wet-transfer method with 250 mA for 2.5 hours. The membrane was blocked with LICOR blocking buffer (LI-COR, 927-50000) for 1 hour. The membrane was washed three times with TBST (CST #9997S), 5 minutes each. Incubation was performed with primary antibody prepared in blocking buffer with 0.1% Tween-20 (Solarbio, P8220) at 4° C. overnight (Anti-SMARCA2/BRM antibody (ab15597) 1:500; Anti-BRG1 antibody [EPR3912] (ab108318) 1:1000; Rabbit anti-Baf180 antibody [EPR15860] (Abcam, ab196022) 1:1000; mouse anti-beta-Actin (8H10D10) (CST #3700) 1:10000). The membrane was washed three times with TBST, 5 minutes each. Incubation with secondary antibody was performed for 1 hour at RT (anti-rabbit IgG (Licor, 926-32211) 1:5000; anti-mouse IgG (LI-COR, 926-68070) 1:5000). The membrane was washed three times with TBST, 5 minutes each and lastly the LiCOR was read.
The letter codes for the percentage of SMARCA degradation after 24 hours (Dmax %) include: A (>90% degradation), B (>70-90% degradation), C (50-70% degradation), and D (<50% degradation).

[3] = target: T1, SMARCA2; assay: MSD SMARCA2 degradation in NCI-H1299 cell line (24 h); set-up: HC: NCI-H1299 cells treated with DMSO; host or cells: NCI-H1299; conditions: for Dmax: NCI-H1299, NCI-H1299 cells; for DC50: NCI-H1299 cells, read-out: SMARCA2 MSD H1299 degradation 24 h: External Abs-DC50
Outline: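 NCI-H1299 cells treated 24 h with a 3-fold, 9-point compound dilution series, then lysed in RIPA with protease inhibitor. SMARCA2 in lysate-coated MSD plates detected with rabbit anti-SMARCA2 (0.3 ug/ml) and SULFO-TAG secondary. Relative SMARCA2 level normalized between DMSO-treated H1299 cells and SMARCA2-negative A2780 cells; Dmax % binned A–D.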

T2 sequence (P51532 whole entry): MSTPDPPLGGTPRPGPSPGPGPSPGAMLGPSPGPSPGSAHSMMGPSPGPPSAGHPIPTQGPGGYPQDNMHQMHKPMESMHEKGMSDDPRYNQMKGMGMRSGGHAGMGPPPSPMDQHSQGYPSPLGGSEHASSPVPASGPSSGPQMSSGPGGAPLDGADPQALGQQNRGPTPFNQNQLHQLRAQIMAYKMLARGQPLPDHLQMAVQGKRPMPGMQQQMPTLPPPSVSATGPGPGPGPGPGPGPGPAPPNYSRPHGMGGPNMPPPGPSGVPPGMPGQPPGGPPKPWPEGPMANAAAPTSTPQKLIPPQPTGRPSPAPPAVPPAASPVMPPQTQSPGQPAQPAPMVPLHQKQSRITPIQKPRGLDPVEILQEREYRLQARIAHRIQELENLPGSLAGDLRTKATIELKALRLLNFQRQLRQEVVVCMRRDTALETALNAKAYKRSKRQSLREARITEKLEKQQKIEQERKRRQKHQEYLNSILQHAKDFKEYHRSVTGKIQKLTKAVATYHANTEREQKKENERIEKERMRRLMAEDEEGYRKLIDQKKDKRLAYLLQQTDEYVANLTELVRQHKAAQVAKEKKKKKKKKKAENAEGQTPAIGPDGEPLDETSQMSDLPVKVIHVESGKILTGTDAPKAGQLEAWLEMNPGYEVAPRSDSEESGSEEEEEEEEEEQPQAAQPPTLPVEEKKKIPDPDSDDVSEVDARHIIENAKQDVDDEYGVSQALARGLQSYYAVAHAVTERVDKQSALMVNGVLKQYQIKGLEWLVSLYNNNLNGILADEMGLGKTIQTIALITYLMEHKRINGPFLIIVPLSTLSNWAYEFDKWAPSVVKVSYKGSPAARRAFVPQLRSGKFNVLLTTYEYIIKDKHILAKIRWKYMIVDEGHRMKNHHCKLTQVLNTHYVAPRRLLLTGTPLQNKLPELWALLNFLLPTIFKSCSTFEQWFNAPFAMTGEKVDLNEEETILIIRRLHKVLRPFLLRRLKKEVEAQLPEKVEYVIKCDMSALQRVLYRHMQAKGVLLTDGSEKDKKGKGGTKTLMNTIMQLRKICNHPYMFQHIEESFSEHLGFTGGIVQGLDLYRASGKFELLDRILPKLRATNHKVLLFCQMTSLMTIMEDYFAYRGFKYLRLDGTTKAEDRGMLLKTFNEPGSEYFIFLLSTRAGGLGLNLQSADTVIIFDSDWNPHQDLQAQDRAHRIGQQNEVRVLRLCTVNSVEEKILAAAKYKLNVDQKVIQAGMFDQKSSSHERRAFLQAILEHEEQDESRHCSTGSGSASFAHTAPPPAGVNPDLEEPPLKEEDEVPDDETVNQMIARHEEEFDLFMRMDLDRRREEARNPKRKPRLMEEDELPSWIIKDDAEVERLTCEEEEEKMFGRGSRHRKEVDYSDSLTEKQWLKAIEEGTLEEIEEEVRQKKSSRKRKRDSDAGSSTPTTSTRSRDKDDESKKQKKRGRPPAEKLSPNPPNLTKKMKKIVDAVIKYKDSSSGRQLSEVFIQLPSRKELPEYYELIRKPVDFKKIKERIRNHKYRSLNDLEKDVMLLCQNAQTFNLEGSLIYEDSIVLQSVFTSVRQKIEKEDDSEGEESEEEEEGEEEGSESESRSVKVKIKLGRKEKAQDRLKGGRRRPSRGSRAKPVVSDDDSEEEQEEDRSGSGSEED
T1 sequence (P51531 whole entry): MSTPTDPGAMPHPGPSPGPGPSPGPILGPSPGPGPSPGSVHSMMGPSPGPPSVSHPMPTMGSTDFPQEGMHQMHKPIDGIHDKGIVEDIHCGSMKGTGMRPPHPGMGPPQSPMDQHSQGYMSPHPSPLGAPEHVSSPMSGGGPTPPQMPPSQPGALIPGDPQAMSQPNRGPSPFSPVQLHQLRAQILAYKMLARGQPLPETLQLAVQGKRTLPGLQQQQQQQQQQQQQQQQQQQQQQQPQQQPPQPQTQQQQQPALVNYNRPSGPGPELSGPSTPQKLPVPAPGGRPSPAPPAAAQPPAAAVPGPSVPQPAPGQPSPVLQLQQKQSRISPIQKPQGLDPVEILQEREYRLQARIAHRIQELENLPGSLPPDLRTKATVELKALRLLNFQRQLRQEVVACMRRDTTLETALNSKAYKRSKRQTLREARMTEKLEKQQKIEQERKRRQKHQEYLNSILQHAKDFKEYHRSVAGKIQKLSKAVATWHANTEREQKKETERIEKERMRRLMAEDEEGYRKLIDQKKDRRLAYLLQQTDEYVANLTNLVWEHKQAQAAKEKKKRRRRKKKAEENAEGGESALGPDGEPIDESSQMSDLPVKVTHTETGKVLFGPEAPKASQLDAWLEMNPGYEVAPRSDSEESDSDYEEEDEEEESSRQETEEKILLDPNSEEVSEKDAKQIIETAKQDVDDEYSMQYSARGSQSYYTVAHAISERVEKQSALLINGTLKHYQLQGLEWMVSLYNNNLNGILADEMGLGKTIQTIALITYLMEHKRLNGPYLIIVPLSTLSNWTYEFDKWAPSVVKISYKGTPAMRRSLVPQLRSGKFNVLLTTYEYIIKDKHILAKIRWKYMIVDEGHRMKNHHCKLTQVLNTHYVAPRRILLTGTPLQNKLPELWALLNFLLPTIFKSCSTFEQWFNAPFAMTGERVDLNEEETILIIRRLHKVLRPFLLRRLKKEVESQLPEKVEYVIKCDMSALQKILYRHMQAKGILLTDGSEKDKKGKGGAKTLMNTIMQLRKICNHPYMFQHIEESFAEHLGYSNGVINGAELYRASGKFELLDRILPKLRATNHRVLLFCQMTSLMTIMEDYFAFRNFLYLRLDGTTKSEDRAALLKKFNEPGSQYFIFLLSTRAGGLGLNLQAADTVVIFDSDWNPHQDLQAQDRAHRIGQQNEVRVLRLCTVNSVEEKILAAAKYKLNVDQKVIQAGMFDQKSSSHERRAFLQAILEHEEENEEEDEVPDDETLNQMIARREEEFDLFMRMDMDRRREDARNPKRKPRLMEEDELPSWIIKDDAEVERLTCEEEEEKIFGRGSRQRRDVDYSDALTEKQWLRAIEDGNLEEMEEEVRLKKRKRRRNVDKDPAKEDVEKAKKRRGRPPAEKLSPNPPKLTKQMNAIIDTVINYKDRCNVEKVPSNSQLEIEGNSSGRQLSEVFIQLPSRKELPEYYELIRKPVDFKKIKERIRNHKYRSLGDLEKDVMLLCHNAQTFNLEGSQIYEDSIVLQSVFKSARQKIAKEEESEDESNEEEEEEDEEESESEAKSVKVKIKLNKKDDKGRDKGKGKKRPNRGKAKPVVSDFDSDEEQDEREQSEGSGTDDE

| Structure (SMILES) | DC50 [1] | DC50 [2] | Dmax [1] | Dmax [2] | Dmax [3] | DC50 [3] |
| --- | --- | --- | --- | --- | --- | --- |
| Cn1c(=O)n(C2CCC(=O)NC2=O)c2ccc(C3CC4(C3)CC(N3CCC(c5cnc(N6C7CCC6CN(c6cc(-c8ccccc8O)nnc6N)C7)nc5)CC3)C4)cc21 (single isomer, unassigned) [I-536 (P2), 3-(5-(6-(4-(2-(3-(3-amino-6-(2-hydroxyphenyl)pyridazin-4-yl)-3,8-diazabicyclo[3.2.1]octan-8-yl)pyrimidin-5-yl)piperidin-1-yl)spiro[3.3]heptan-2-yl)-3-methyl-2-oxo-2,3-dihydro-1H-benzo[d]imidazol-1-yl)piperidine-2,6-dione] | < 100 nM | < 100 nM |  |  |  |  |
| Cn1c(=O)n(C2CCC(=O)NC2=O)c2ccc(C3CC4(C3)CC(N3CCC(c5cnc(N6C7CCC6CN(c6cc(-c8ccccc8O)nnc6N)C7)nc5)CC3)C4)cc21 (single isomer, unassigned) [I-536 (P3), 3-(5-(6-(4-(2-(3-(3-amino-6-(2-hydroxyphenyl)pyridazin-4-yl)-3,8-diazabicyclo[3.2.1]octan-8-yl)pyrimidin-5-yl)piperidin-1-yl)spiro[3.3]heptan-2-yl)-3-methyl-2-oxo-2,3-dihydro-1H-benzo[d]imidazol-1-yl)piperidine-2,6-dione] | < 100 nM | < 100 nM |  |  |  |  |
| Cn1c(=O)n(C2CCC(=O)NC2=O)c2ccc(CCCN3CCC(c4nccc(N5C6CCC5CN(c5cc(-c7ccccc7O)nnc5N)C6)n4)CC3)cc21 (stereo not drawn) [I-278] | < 100 nM | < 100 nM | > 90% | > 90% |  |  |
| Cn1c(=O)n(C2CCC(=O)NC2=O)c2ccc([C@H]3CC[C@@H](N4CCC(c5nccc(N6C7CCC6CN(c6cc(-c8ccccc8O)nnc6N)C7)n5)CC4)CC3)cc21 (stereo partly drawn) [I-279, 3-(5-((1s,4s)-4-(4-(4-(3-(3-amino-6-(2-hydroxyphenyl)pyridazin-4-yl)-3,8-diazabicyclo[3.2.1]octan-8-yl)pyrimidin-2-yl)piperidin-1-yl)cyclohexyl)-3-methyl-2-oxo-2,3-dihydro-1H-benzo[d]imidazol-1-yl)piperidine-2,6-dion] | < 100 nM | < 100 nM | > 90% | > 90% |  |  |
| Cn1c(=O)n(C2CCC(=O)NC2=O)c2ccc([C@H]3CC[C@H](N4CCC(c5nccc(N6C7CCC6CN(c6cc(-c8ccccc8O)nnc6N)C7)n5)CC4)CC3)cc21 (stereo partly drawn) [I-280, 3-(5-((1r,4r)-4-(4-(4-(3-(3-amino-6-(2-hydroxyphenyl)pyridazin-4-yl)-3,8-diazabicyclo[3.2.1]octan-8-yl)pyrimidin-2-yl)piperidin-1-yl)cyclohexyl)-3-methyl-2-oxo-2,3-dihydro-1H-benzo[d]imidazol-1-yl)piperidine-2,6-dione] | < 100 nM | < 100 nM | > 90% | > 90% |  |  |
| Nc1nnc(-c2ccccc2O)cc1-c1cnn(C2CCN([C@H]3CC[C@@H](CNc4ccc5c(c4)C(=O)N(C4CCC(=O)NC4=O)C5=O)CC3)CC2)c1 (stereo partly drawn) [I-281, 5-((((1s,4s)-4-(4-(4-(3-amino-6-(2-hydroxyphenyl)pyridazin-4-yl)-1H-pyrazol-1-yl)piperidin-1-yl)cyclohexyl)methyl)amino)-2-(2,6-dioxopiperidin-3-yl)isoindoline-1,3-dione] | < 100 nM | < 100 nM | > 90% | > 90% |  |  |
| Nc1nnc(-c2ccccc2O)cc1-c1cnn(C2CCN(C3CCC(Nc4cccc5c4C(=O)N(C4CCC(=O)NC4=O)C5=O)CC3)CC2)c1 (stereo not drawn) [I-322] | < 100 nM | < 100 nM | > 90% | > 90% |  |  |
| Nc1nnc(-c2ccccc2O)cc1-c1cnn(C2CCN(C3CCC(Nc4ccc5c(c4)C(=O)N(C4CCC(=O)NC4=O)C5=O)CC3)CC2)c1 (stereo not drawn) [I-323] | < 100 nM | < 100 nM | > 90% | > 90% |  |  |
| Nc1nnc(-c2ccccc2O)cc1-c1cnn(C2CCN(C3CCC(CNc4cccc5c4C(=O)N(C4CCC(=O)NC4=O)C5=O)CC3)CC2)c1 (stereo not drawn) [I-324] | < 100 nM | < 100 nM | 70 to 90% | 70 to 90% |  |  |
| Nc1nnc(-c2ccccc2O)cc1-c1cnn(C2CCN([C@H]3CC[C@H](CNc4ccc5c(c4)C(=O)N(C4CCC(=O)NC4=O)C5=O)CC3)CC2)c1 (stereo partly drawn) [I-325, 5-((((1r,4r)-4-(4-(4-(3-amino-6-(2-hydroxyphenyl)pyridazin-4-yl)-1H-pyrazol-1-yl)piperidin-1-yl)cyclohexyl)methyl)amino)-2-(2,6-dioxopiperidin-3-yl)isoindoline-1,3-dione] | < 100 nM | < 100 nM | 70 to 90% | 70 to 90% |  |  |
| COc1ccccc1-c1cc(N2CC3CCC(C2)N3c2ncc(C3CCN(CCCc4ccc5c(c4)n(C)c(=O)n5C4CCC(=O)NC4=O)CC3)cn2)c(N)nn1 (stereo not drawn) [I-326] | > 1000 nM | 100 to 500 nM | < 50% | 50 to 70% |  |  |
| Cc1ncsc1-c1ccc(CNC(=O)[C@@H]2C[C@@H](O)CN2C(=O)[C@@H](NC(=O)C[C@H]2CC[C@H](N3CCC(n4cc(-c5cc(-c6ccccc6O)nnc5N)cn4)CC3)CC2)C(C)(C)C)cc1 [I-328] | 100 to 500 nM | < 100 nM | > 90% | > 90% |  |  |
| Cc1ncsc1-c1ccc(CNC(=O)[C@@H]2C[C@@H](O)CN2C(=O)[C@@H](NC(=O)C2CC3(C2)CC(N2CCC(n4cc(-c5cc(-c6ccccc6O)nnc5N)cn4)CC2)C3)C(C)(C)C)cc1 (stereo partly drawn) [I-329] | 100 to 500 nM | < 100 nM | > 90% | > 90% |  |  |
| Cc1ncsc1-c1ccc(CNC(=O)[C@@H]2C[C@@H](O)CN2C(=O)[C@@H](NC(=O)CCCCN2CCC(Cn3cc(-c4cc(-c5ccccc5O)nnc4N)cn3)CC2)C(C)(C)C)cc1 [I-468] |  | 100 to 500 nM |  | < 50% | < 50% | > 1000 nM |
| Cc1ncsc1-c1ccc(CNC(=O)[C@@H]2C[C@@H](O)CN2C(=O)[C@@H](NC(=O)CN2CCC[C@@H](Cn3cc(-c4cc(-c5ccccc5O)nnc4N)cn3)C2)C(C)(C)C)cc1 [I-469] |  | 100 to 500 nM |  | 50 to 70% | < 50% | 100 to 500 nM |
| Cc1ncsc1-c1ccc(CNC(=O)[C@@H]2C[C@@H](O)CN2C(=O)[C@@H](NC(=O)CCCCN2CCC[C@@H](Cn3cc(-c4cc(-c5ccccc5O)nnc4N)cn3)C2)C(C)(C)C)cc1 [I-472] |  | 100 to 500 nM |  | 50 to 70% | < 50% | 100 to 500 nM |
| Cc1ncsc1-c1ccc(CNC(=O)[C@@H]2C[C@@H](O)CN2C(=O)[C@@H](NC(=O)CN2CCN(Cc3ccc(-c4cc(-c5ccccc5O)nnc4N)cc3)CC2)C(C)(C)C)cc1 [I-473] |  | 100 to 500 nM |  | < 50% | < 50% | 100 to 500 nM |
| Cc1ncsc1-c1ccc(CNC(=O)[C@@H]2C[C@@H](O)CN2C(=O)[C@@H](NC(=O)CCCCN2CCN(Cc3ccc(-c4cc(-c5ccccc5O)nnc4N)cc3)CC2)C(C)(C)C)cc1 [I-476] |  | 100 to 500 nM |  | 50 to 70% | < 50% | 100 to 500 nM |
| NCC#Cc1cnc(N2C3CCC2CN(c2cc(-c4ccccc4O)nnc2N)C3)nc1 [I-535, 2-[6-amino-5-[8-[5-(3-aminoprop-1-ynyl)pyrimidin-2-yl]-3,8-diazabicyclo[3.2.1]octan-3-yl]pyridazin-3-yl]phenol] |  | < 100 nM |  | < 50% | < 50% | > 1000 nM |
